Source: patent US11932634B2 (Gilead Sciences, Inc., priority 2021, dated 2024)

How the values were obtained:
[1] = target: T1, human DGKα (Homo sapiens, UniProt P23743); experiment: DGKα Biochemical Activity Assay (ADP-Glo);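 note: recombinant enzyme converting diacylglycerol in lipid micelles with ATP, ADP formed detected by luminescence, IC50 from a four-parameter nonlinear fit, geometric mean across experiments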
T1 construct: purchased Carna Biosciences'; inferred from the same paragraph's 'obtained from Carna Biosciences')
Description: Alternatively, the enzymatic activity of human DGKα was monitored in a biochemical assay in the presence or absence of compounds and using micelles containing 18:1 Diacylglycerol (DAG), 16:0-18:1 PS (POPS) and Octylglucoside as substrate. DGKα activity led to conversion of DAG and ATP to Phosphatidic Acid (PA) and ADP. Levels of ADP were monitored by bioluminescence using the ADP-Glo Kinase Assay (Promega) and were indicative of DGKα activity.
Ten nanoliters of test compound dissolved in DMSO at various concentrations were dispensed into a 384-well low volume nonbinding service white plates (Corning #3824) using a Labcyte Echo instrument. Recombinant DGKα Biosciences) in assay buffer (5 μL in 50 mM MOPS [3-(N-morpholino) propanesulfonic acid], pH 7.2; 0.0025% Triton X-100; 1 mM dithiothreitol; 5 mM MgCl2, 200 μM ATP) was added to the compound-containing plate and was incubated for 15 minutes at 25° C. A substrate solution (5 μL in 1.7 mM 1,2-dioleoyl-sn-glycerol [18:1 DAG], 13.5 mM 1-palmitoyl-2-oleoyl-sn-glycero-3-phospho-L-serine [16:0-18:1 PS](POPS), 2 μM CaCl2), 100 mM Octylglucoside (OG), 1 mM DTT) (obtained from Carna Biosciences) diluted in DGK ALPHA assay buffer was then added to start the reaction. Final concentrations were 1 nM DGKα, 100 μM ATP, 1 μM calcium chloride, 0.85 mM 1,2-dioleoyl-sn-glycerol (18:1 DAG), 6.75 mM 1-palmitoyl-2-oleoyl-sn-glycero-3-phospho-L-serine (16:0-18:1 PS) (POPS), 1 μM CaCl2), 50 mM Octylglucoside (OG) and 5 mM MgCl2. The reaction mixture was incubated at 25° C. for 1 hour. ADP-Glo Reagent (10 μL, 10 mM Mg added) provided by the kit was added to each well and incubated at 25° C. for 40 minutes. Then, 20 μL of Kinase Detection Reagent was added and incubated at 25° C. for 40 minutes. Luciferase activity of each well was measured via luminescence on an Envision plate reader (PerkinElmer).
Least squares curve fittings were performed using a four-parameter variable slope nonlinear regression model. […] IC50 values from multiple experiments were averaged by geometric mean and the standard deviation was calculated.

[2] = test system: Jurkat NFκB-luciferase cells; experiment: Jurkat NFκB-Luciferase Assay; assay type: cell-based; conditions: Homo sapiens; Jurkat NFκB-luciferase cells activated with anti-CD3 antibody (OKT3), 2.5 hrs at 37° C., One-Glo Ex; geometric mean; read-out: DGK NFKb Luciferase EC50;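 note: bioluminescence read-out normalized to DMSO basal activation and to maximum enhancement at 1 µM compound, rising signal indicating stronger T-cell activation through DGKα inhibition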
Protocol: The activity of compounds was tested in a cell based NFκB reporter assay. Jurkat cells that are stably expressing a luciferase reporter construct under the transcriptional control of a NFκB reporter element were activated with an anti-CD3 antibody and luciferase levels were measured with a bioluminescence readout.
The day after, the excess antibody was washed out five times with 100 ul/well of assay medium (RPMI supplemented with 10% fetal bovine serum) using a Biotek EL406 instrument and leaving 20 µl of residual volume in each well. Jurkat NFκB-luciferase cells (Promega #) were harvested and diluted to 1 million cells/ml in assay medium. Sixty nanoliters of test compound dissolved in DMSO at various concentrations were dispensed into 384-well v-bottom polypropylene plates (Greiner) using a Labcyte Echo instrument. Thirty microliters of medium containing the Jurkat NFκB-luciferase cells were then dispensed using a Biotek MicroFlo instrument in each well of the compound-containing plate. The medium/cell/compound mixture was mixed with a Bravo instrument and 20 ul/well of the mixture was transferred to the anti-CD3-coated plate. The assay mixture was then incubated for 2.5 hrs at 37° C. followed by equilibration at 25° C. for 30 min. Forty microliters of One-Glo Ex (Promega) was then added to the assay mixture and luciferase activity was read on a Envision plate reader 7 minutes later.
Bioluminescence data were normalized based on maximum enhancement (1 micromolar of compound) and on basal activation (DMSO) controls. Least squares curve fittings were performed using a four-parameter variable slope nonlinear regression model. […] EC50 values from multiple experiments were averaged by geometric mean and the standard deviation was calculated.

T1 sequence (P23743 whole entry): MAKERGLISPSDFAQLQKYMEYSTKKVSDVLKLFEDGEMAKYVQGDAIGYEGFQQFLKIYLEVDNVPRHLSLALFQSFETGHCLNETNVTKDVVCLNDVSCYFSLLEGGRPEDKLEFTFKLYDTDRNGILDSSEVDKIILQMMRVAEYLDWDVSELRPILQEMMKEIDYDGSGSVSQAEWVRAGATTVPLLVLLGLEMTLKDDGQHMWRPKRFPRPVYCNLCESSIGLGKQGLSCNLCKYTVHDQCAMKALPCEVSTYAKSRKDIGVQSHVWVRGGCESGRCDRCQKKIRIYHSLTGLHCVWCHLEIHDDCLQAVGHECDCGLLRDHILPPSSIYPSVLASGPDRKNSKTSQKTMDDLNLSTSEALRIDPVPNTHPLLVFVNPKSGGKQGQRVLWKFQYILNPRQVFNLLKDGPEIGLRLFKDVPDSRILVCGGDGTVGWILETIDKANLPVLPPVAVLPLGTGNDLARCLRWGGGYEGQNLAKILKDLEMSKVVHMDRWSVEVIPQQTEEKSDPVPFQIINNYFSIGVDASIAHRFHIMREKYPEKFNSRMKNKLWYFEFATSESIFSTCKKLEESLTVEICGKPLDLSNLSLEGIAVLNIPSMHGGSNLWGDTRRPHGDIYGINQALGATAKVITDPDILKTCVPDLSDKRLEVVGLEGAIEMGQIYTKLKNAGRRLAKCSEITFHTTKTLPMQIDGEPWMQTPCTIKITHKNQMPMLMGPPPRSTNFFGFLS

Compound | IC50 [1] | EC50 [2]
CC(C)(C#Cc1cccc2c1COCCN2c1nc(=O)[nH]c2cccc(F)c12)C(F)(F)F [Example 92, 5-fluoro-4-(6-(4,4,4-trifluoro-3,3-dimethylbut-1-yn-1-yl)-2,3-dihydrobenzo[e][1,4]oxazepin-1(5H)-yl)quinazolin-2(1H)-one] | 37.4 nM | 1.66 nM
CC1(C#Cc2cccc3c2COCCN3c2nc(=O)[nH]c3cccc(F)c23)COC1 [Example 93, 5-fluoro-4-(6-((3-methyloxetan-3-yl)ethynyl)-2,3-dihydrobenzo[e][1,4]oxazepin-1(5H)-yl)quinazolin-2(1H)-one] | 6.6 nM | 7.25 nM
[2H]C([2H])([2H])n1c(=O)nc(N2CCOCc3c(C#CC(C)(C)O)cccc32)c2c(F)cccc21 [Example 94, 5-fluoro-4-[6-(3-hydroxy-3-methyl-but-1-ynyl)-3,5-dihydro-2H-4,1-benzoxazepin-1-yl]-1-(trideuteriomethyl)quinazolin-2-one] | 7.77 nM | 16.1 nM
[2H]C([2H])([2H])n1c(=O)nc(N2CCOCc3c(C#CC(C)(C)C#N)cccc32)c2c(F)cccc21 [Example 95, 4-[1-[5-fluoro-2-oxo-1-(trideuteriomethyl)quinazolin-4-yl]-3,5-dihydro-2H-4,1-benzoxazepin-6-yl]-2,2-dimethyl-but-3-ynenitrile] | 2.1 nM | 2.29 nM
[2H]C([2H])([2H])n1c(=O)nc(N2CCOCc3c(C#CC(C)(C)O)cccc32)c2c(F)c(F)ccc21 [Example 97, 5,6-difluoro-4-[6-(3-hydroxy-3-methyl-but-1-ynyl)-3,5-dihydro-2H-4,1-benzoxazepin-1-yl]-1-(trideuteriomethyl)quinazolin-2-one] | 4.37 nM | 15.8 nM
[2H]C([2H])([2H])n1c(=O)nc(N2CCOCc3c(C#CC(C)(C)C#N)cccc32)c2c(F)c(F)ccc21 [Example 98, 4-[1-[5,6-difluoro-2-oxo-1-(trideuteriomethyl)quinazolin-4-yl]-3,5-dihydro-2H-4,1-benzoxazepin-6-yl]-2,2-dimethyl-but-3-ynenitrile] | 2.83 nM | 3.29 nM
[2H]C([2H])([2H])n1c(=O)nc(N2CCOCc3c(Br)cccc32)c2c(F)cccc21 [Example 99, 4-(6-bromo-2,3-dihydrobenzo[e][1,4]oxazepin-1(5H)-yl)-5-fluoro-1-(methyl-d3)quinazolin-2(1H)-one] | 31.2 nM | 8.22 nM
[2H]C([2H])([2H])n1c(=O)nc(N2CCOCc3c(C#CC4(C(F)(F)F)CC4)cccc32)c2c(F)cccc21 [Example 100, 5-fluoro-1-(methyl-d3)-4-(6-((1-(trifluoromethyl)cyclopropyl)ethynyl)-2,3-dihydrobenzo[e][1,4]oxazepin-1(5H)-yl)quinazolin-2(1H)-one] | 16.6 nM | 0.979 nM
[2H]C([2H])([2H])n1c(=O)nc(N2CCOCc3c(C#CC4(C)COC4)cccc32)c2c(F)cccc21 [Example 101, 5-fluoro-1-(methyl-d3)-4-(6-((3-methyloxetan-3-yl)ethynyl)-2,3-dihydrobenzo[e][1,4]oxazepin-1(5H)-yl)quinazolin-2(1H)-one] | 2.62 nM | 4.09 nM
O=c1nc(N2CCOCc3c(C#CC4(C(F)(F)F)CC4)cccc32)c2cc(F)cc(F)c2[nH]1 [Example 102] | 14.7 nM | 1.75 nM
CC(C)(O)C#Cc1cccc2c1COCCN2c1nc(=O)[nH]c2c(F)cc(F)cc12 [Example 103] | 8.98 nM | 47.4 nM
CC(C)(C#N)C#Cc1cccc2c1COCCN2c1nc(=O)[nH]c2c(F)cc(F)cc12 [Example 104] | 4.88 nM | 5.21 nM
CC1(C#Cc2cccc3c2COCCN3c2nc(=O)[nH]c3c(F)cc(F)cc23)CC1 [Example 105] | 6.96 nM | 0.85 nM
CC1(C#Cc2cncc3c2CCCN3c2nc(=O)[nH]c3ccc(F)c(F)c23)CC1 [Example 107, 5,6-difluoro-4-(5-((1-methylcyclopropyl)ethynyl)-3,4-dihydro-1,7-naphthyridin-1(2H)-yl)quinazolin-2(1H)-one] | 7.96 nM | 0.596 nM
O=c1nc(N2CCCc3c(C#CC4(C(F)F)CC4)cncc32)c2c(F)c(F)ccc2[nH]1 [Example 108, 4-(5-((1-(difluoromethyl)cyclopropyl)ethynyl)-3,4-dihydro-1,7-naphthyridin-1(2H)-yl)-5,6-difluoroquinazolin-2(1H)-one] | 6.85 nM | 1.43 nM
[2H]C([2H])([2H])n1c(=O)nc(N2CCOCc3c(C#CC(C)(C)C(F)(F)F)cccc32)c2c(F)cccc21 [Example 109, 5-fluoro-1-(methyl-d3)-4-(6-(4,4,4-trifluoro-3,3-dimethylbut-1-yn-1-yl)-2,3-dihydrobenzo[e][1,4]oxazepin-1(5H)-yl)quinazolin-2(1H)-one] | 6.05 nM | 0.501 nM
CC(C)(C#N)C#Cc1cccc2c1COCCN2c1nc(=O)[nH]c2cccc(F)c12 [Example 110, 4-(1-(5-fluoro-2-oxo-1,2-dihydroquinazolin-4-yl)-1,2,3,5-tetrahydrobenzo[e][1,4]oxazepin-6-yl)-2,2-dimethylbut-3-ynenitrile] | 6.52 nM | 2.82 nM
[2H]C([2H])([2H])n1c(=O)nc(N(CC(F)F)c2cccc(C#CC(C)(C)O)c2F)c2c(F)cccc21 [Example 111, 4-[N-(2,2-difluoroethyl)-2-fluoro-3-(3-hydroxy-3-methyl-but-1-ynyl)anilino]-5-fluoro-1-(trideuteriomethyl)quinazolin-2-one] | 3.11 nM | 9.32 nM
CC(F)(F)C1(C#Cc2cccc3c2COCCN3c2nc(=O)[nH]c3cccc(F)c23)CC1 [Example 112, 4-(6-((1-(1,1-difluoroethyl)cyclopropyl)ethynyl)-2,3-dihydrobenzo[e][1,4]oxazepin-1(5H)-yl)-5-fluoroquinazolin-2(1H)-one] | 23.6 nM | 0.973 nM
CC(C)(O)C#Cc1nccc(N(CC(F)F)c2nc(=O)[nH]c3cccc(F)c23)c1F [Example 113, 4-[2,2-difluoroethyl-[3-fluoro-2-(3-hydroxy-3-methyl-but-1-ynyl)-4-pyridyl]amino]-5-fluoro-1H-quinazolin-2-one] | 10.4 nM | 66.3 nM
CC(C)(O)C#Cc1cc(F)cc(N(CC(F)F)c2nc(=O)[nH]c3c(Cl)cc(F)cc23)c1 [Example 114, 8-chloro-4-[N-(2,2-difluoroethyl)-3-fluoro-5-(3-hydroxy-3-methyl-but-1-ynyl)anilino]-6-fluoro-1H-quinazolin-2-one] | 445 nM | 112 nM
CC1(C#Cc2nccc(N(CC(F)F)c3nc(=O)[nH]c4cccc(F)c34)c2F)CC1 [Example 115, 4-[2,2-difluoroethyl-[3-fluoro-2-[2-(1-methylcyclopropyl)ethynyl]-4-pyridyl]amino]-5-fluoro-1H-quinazolin-2-one] | 6.05 nM | 1.21 nM
O=c1nc(N2CCCc3c2ccnc3C#CC2(C(F)(F)F)CC2)c2c(F)c(F)ccc2[nH]1 [Example 116, 5,6-difluoro-4-[5-[2-[1-(trifluoromethyl)cyclopropyl]ethynyl]-3,4-dihydro-2H-1,6-naphthyridin-1-yl]-1H-quinazolin-2-one] | 4.07 nM | 0.945 nM
